Key:
[1] = system: HT-29 (colon adenocarcinoma); assay: MTT cell viability assay, HT-29; assay type: cell-based; conditions: Homo sapiens, HT-29, 48 h, 2 days incubation, average ±SD of three experiments
Description: (§1) The effects of triazole derivatives 1–26 on the cell viability were determined by MTT assay, and the IC50 values were determined toward the human tumor cell lines HT-29 (colon adenocarcinoma), A-549 (lung adenocarcinoma), and MCF-7 (breast adenocarcinoma), as well as toward the non-tumor cell line HEK-293 (human embryonic kidney cells).
(§2) In 96-well plates, 3 × 10^3 (A549 and HEK-293) or 5 × 10^3 (HT-29, MCF-7) cells per well were incubated with serial dilutions of the tested compounds in a total volume of 100 μL of their growth media. The 3-(4,5-dimethylthiazol-2-yl)-2,5-diphenyltetrazolium bromide (MTT; Sigma Chemical Co.) dye reduction assay in 96-well microplates was used. After 2 days of incubation (37 °C, 5% CO2 in a humid atmosphere), 10 μL of MTT (5 mg/mL in phosphate-buffered saline, PBS) was added to each well, and the plate was incubated for a further 3 h (37 °C). After that, the supernatant was discarded and replaced by 100 µL of DMSO to dissolve formazan crystals. The absorbance was then read at 550 nm by spectro-photometry. For all concentrations of compound, cell viability was expressed as the percentage of the ratio between the mean absorbance of treated cells and the mean absorbance of untreated cells. Three independent experiments were performed, and the IC50 values (i.e., concentration half inhibiting cell proliferation) were graphically determined by using GraphPad Prism 4 software (2019).

[2] = system: A-549 (lung adenocarcinoma); assay: MTT cell viability assay, A-549; assay type: cell-based; conditions: Homo sapiens, A549, 48 h, 2 days incubation, average ±SD of three experiments
Description: as §1, §2

[3] = system: MCF-7 (breast adenocarcinoma); assay: MTT cell viability assay, MCF-7; assay type: cell-based; conditions: Homo sapiens, MCF7, 48 h, 2 days incubation, average ±SD of three experiments
Description: as §1, §2

[4] = system: HEK-293 (human embryonic kidney cells); assay: MTT cell viability assay, HEK-293; assay type: cell-based; conditions: HEK293, 48 h, 2 days incubation, non-tumor cell line, average ±SD of three experiments
Description: as §1, §2

[5] = molecular target: T1, membrane PD-L1 (mPD-L1) (Homo sapiens, UniProt Q9NZQ7); assay: Membrane PD-L1 relative quantification by flow cytometry; assay type: cell-based; conditions: 24 h, 100 or 10 μM (Table 7), percentage referred to DMSO control
T1 construct: endogenous in cells; host or cells: HT-29, A-549, MCF-7
T1 sequence (Q9NZQ7 19-290): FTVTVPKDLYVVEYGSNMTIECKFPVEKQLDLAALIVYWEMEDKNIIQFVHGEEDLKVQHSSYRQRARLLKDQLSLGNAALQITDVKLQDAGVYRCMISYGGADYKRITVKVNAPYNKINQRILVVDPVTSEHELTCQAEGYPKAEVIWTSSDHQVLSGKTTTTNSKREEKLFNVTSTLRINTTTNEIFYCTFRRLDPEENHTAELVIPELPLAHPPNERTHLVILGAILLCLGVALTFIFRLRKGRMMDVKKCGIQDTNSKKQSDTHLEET
Description: Based on antiproliferative activity of synthetized derivatives, we decided to study the effect of the amino derivatives 14–26 on the expression of both membrane targets PD-L1 and VEGFR-2 (mPD-L1 and mVEGFR-2). The evaluation was performed on three cancer cell lines (HT-29, A-549, and MCF-7) by flow cytometry after 24 h of treatment with the corresponding compounds. Compounds were used at a 100 or 10 μM concentration depending on their IC50 value (see Table 1 in Materials and Methods section). The presence of both targets in the membrane was relatively determined by using DMSO-treated cells as a negative control.
(§3) To study the effect of the compounds on every biological target in cancer cell lines the compounds were used at a 100 or 10 μM dose, depending on their IC50 and the treated cell line.
(§4) For the assay, 10^5 cells per well were incubated for 24 h with the corresponding dose of the tested compound in a total volume of 500 μL of their growth media.
To detect membrane PD-L1 and VEGFR-2, after the cell treatments, they were collected, fixed with 4% in PBS paraformaldehyde, and stained with FITC Mouse monoclonal Anti-Human VEGFR-2 (ab184903) and Alexa Fluor® 647 Rabbit monoclonal Anti-PD-L1 (ab215251).

[6] = molecular target: T2, membrane VEGFR-2 (mVEGFR-2) (Homo sapiens, UniProt P35968); assay: Membrane VEGFR-2 relative quantification by flow cytometry; assay type: cell-based; conditions: 24 h, 100 or 10 μM (Table 7), sorafenib 10 μM, percentage referred to DMSO control
T2 construct: endogenous in cells; host or cells: HT-29, A-549, MCF-7
T2 sequence (P35968 20-1356): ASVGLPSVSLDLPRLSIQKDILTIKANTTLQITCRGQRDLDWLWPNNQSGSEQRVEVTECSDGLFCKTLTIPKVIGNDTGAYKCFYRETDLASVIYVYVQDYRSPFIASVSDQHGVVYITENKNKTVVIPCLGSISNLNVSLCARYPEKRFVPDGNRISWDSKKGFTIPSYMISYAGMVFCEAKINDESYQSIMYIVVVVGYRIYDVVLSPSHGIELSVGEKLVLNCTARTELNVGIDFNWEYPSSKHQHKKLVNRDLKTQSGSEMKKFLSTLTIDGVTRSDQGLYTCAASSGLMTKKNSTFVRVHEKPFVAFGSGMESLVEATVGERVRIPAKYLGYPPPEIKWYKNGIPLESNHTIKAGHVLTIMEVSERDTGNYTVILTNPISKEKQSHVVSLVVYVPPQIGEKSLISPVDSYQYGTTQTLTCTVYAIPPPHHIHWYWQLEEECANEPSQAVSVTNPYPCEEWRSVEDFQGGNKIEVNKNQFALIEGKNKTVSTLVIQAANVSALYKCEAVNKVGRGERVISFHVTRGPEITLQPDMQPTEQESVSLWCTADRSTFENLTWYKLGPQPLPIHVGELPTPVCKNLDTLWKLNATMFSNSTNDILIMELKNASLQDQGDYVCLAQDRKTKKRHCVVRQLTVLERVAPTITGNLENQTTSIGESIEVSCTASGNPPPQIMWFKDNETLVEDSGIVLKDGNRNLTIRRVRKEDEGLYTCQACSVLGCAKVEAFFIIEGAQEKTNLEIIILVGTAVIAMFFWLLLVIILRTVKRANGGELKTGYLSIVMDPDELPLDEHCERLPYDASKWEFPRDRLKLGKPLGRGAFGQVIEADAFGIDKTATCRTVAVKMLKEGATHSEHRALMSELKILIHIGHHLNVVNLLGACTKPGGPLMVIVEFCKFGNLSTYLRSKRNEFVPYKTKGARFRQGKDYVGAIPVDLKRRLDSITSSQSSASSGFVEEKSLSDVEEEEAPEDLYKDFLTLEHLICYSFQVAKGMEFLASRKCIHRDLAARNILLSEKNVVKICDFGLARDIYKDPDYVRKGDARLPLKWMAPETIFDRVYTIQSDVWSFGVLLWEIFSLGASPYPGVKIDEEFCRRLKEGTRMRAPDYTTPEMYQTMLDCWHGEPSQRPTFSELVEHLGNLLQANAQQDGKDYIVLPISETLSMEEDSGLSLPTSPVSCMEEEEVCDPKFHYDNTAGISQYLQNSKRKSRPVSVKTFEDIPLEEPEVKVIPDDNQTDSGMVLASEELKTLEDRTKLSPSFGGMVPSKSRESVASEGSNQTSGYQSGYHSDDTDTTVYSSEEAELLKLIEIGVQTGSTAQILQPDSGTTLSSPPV
Description: The presence of both targets in the membrane was relatively determined by using DMSO-treated cells as a negative control.
as §4

[7] = molecular target: T3, total PD-L1 (tPD-L1) (Homo sapiens, UniProt Q9NZQ7); assay: Total PD-L1 relative quantification by flow cytometry; assay type: cell-based; conditions: for tPD-L1 relative detection, A-549 / tPD-L1 relative detection, HT-29 / tPD-L1 relative detection, MCF-7: 24 h, 100 or 10 μM (Table 7), relative to DMSO control
T3 construct: endogenous in cells; host or cells: HT-29, A-549, MCF-7
T3 sequence (Q9NZQ7 19-290): as the sequence (Q9NZQ7 19-290) above
Description: (§5) The study was carried out again on HT-29, A-549, and MCF-7 cell lines by flow cytometry after 24 h of treatment with the corresponding compounds. The presence of the targets in the whole cell were relatively determined by using DMSO-treated cells as a negative control and BMS-8 as a positive one for PD-L1 (Table 3).
as §3, §4
(§6) For the detection of total PD-L1, VEGFR-2, and c-Myc, the procedure was the same as for membrane targets, but after fixation, a treatment with 0,5% in PBS TritonTM X-100 was performed. The antibodies used for PD-L1 and VEGFR-2 were the ones previously described, and for the detection of c-Myc, it was FITC Rabbit monoclonal anti-c-Myc (ab223913).

[8] = system: c-Myc; assay: c-Myc relative quantification by flow cytometry; assay type: cell-based, human; conditions: 24 h, 100 or 10 μM (Table 7), relative to DMSO control
Description: as §5, §3, §4, §6

Clc1ccccc1Cn1cc(-c2ccccc2)nn1 [Compound 8, 1-(2-chlorobenzyl)-4-phenyl-1H-1,2,3-triazole]
melting point: 86 to 88 °C

Clc1cccc(Cn2cc(-c3ccccc3)nn2)c1 [Compound 9, 1-(3-chlorobenzyl)-4-phenyl-1H-1,2,3-triazole]
melting point: 108 to 110 °C

Clc1ccc(Cn2cc(-c3ccccc3)nn2)cc1 [Compound 10, 1-(4-chlorobenzyl)-4-phenyl-1H-1,2,3-triazole]
melting point: 141 to 144 °C

Brc1ccccc1Cn1cc(-c2ccccc2)nn1 [Compound 11, 1-(2-bromobenzyl)-4-phenyl-1H-1,2,3-triazole]
melting point: 100 to 103 °C

Brc1cccc(Cn2cc(-c3ccccc3)nn2)c1 [Compound 12, 1-(3-bromobenzyl)-4-phenyl-1H-1,2,3-triazole]
melting point: 96 to 99 °C

Brc1ccc(Cn2cc(-c3ccccc3)nn2)cc1 [Compound 13, 1-(4-bromobenzyl)-4-phenyl-1H-1,2,3-triazole]
melting point: 153 to 155 °C

Nc1ccc(-c2cn(Cc3ccccc3)nn2)cc1 [Compound 14, 4-(1-benzyl-1H-1,2,3-triazol-4-yl)aniline]
IC50 [1]: 2 ± 1 µM
IC50 [2]: > 100 µM
IC50 [3]: 1 µM
IC50 [4]: > 100 µM
mPD-L1 relative detection, A-549 [5]: >100%
mPD-L1 relative detection, HT-29 [5]: >100%
mPD-L1 relative detection, MCF-7 [5]: 94 ± 5%
mVEGFR-2 relative detection, A-549 [6]: >100%
mVEGFR-2 relative detection, HT-29 [6]: 95 ± 6%
mVEGFR-2 relative detection, MCF-7 [6]: >100%
tPD-L1 relative detection, A-549 ([7]; A-549): 98 ± 3%
tPD-L1 relative detection, HT-29 [7]: >100%
tPD-L1 relative detection, MCF-7 [7]: >100%
c-Myc relative detection, A-549 [8]: >100%
c-Myc relative detection, HT-29 [8]: >100%
c-Myc relative detection, MCF-7 [8]: 60 ± 3%
melting point: 180 to 181 °C

Cc1ccccc1Cn1cc(-c2ccc(N)cc2)nn1 [Compound 15, 4-(1-(2-methylbenzyl)-1H-1,2,3-triazol-4-yl)aniline]
IC50 [1]: 7 ± 1 µM
IC50 [2]: 4 ± 3 µM
IC50 [3]: 4 ± 1 µM
IC50 [4]: > 100 µM
mPD-L1 relative detection, A-549 [5]: 90 ± 6%
mPD-L1 relative detection, HT-29 [5]: 74 ± 13%
mPD-L1 relative detection, MCF-7 [5]: 84 ± 11%
mVEGFR-2 relative detection, A-549 [6]: >100%
mVEGFR-2 relative detection, HT-29 [6]: 87 ± 1%
mVEGFR-2 relative detection, MCF-7 [6]: >100%
tPD-L1 relative detection, A-549 ([7]; A-549): >100%
tPD-L1 relative detection, HT-29 [7]: >100%
tPD-L1 relative detection, MCF-7 [7]: >100%
c-Myc relative detection, A-549 [8]: >100%
c-Myc relative detection, HT-29 [8]: >100%
c-Myc relative detection, MCF-7 [8]: >100%
melting point: 131 to 133 °C

Cc1cccc(Cn2cc(-c3ccc(N)cc3)nn2)c1 [Compound 16, 4-(1-(3-methylbenzyl)-1H-1,2,3-triazol-4-yl)aniline]
IC50 [1]: 9 ± 6 µM
IC50 [2]: 0.7 µM
IC50 [3]: 2.1 µM
IC50 [4]: 63 ± 34 µM
mPD-L1 relative detection, A-549 [5]: 86 ± 17%
mPD-L1 relative detection, HT-29 [5]: 66 ± 21%
mPD-L1 relative detection, MCF-7 [5]: >100%
mVEGFR-2 relative detection, A-549 [6]: >100%
mVEGFR-2 relative detection, HT-29 [6]: 93 ± 1%
mVEGFR-2 relative detection, MCF-7 [6]: >100%
tPD-L1 relative detection, A-549 ([7]; A-549): >100%
tPD-L1 relative detection, HT-29 [7]: >100%
tPD-L1 relative detection, MCF-7 [7]: >100%
c-Myc relative detection, A-549 [8]: >100%
c-Myc relative detection, HT-29 [8]: >100%
c-Myc relative detection, MCF-7 [8]: 78 ± 7%
melting point: 128 to 129 °C

Cc1ccc(Cn2cc(-c3ccc(N)cc3)nn2)cc1 [Compound 17, 4-(1-(4-methylbenzyl)-1H-1,2,3-triazol-4-yl)aniline]
IC50 [1]: 8 ± 2 µM
IC50 [2]: 1.7 µM
IC50 [3]: 4 ± 1 µM
IC50 [4]: 4 ± 2 µM
mPD-L1 relative detection, A-549 [5]: 88 ± 21%
mPD-L1 relative detection, HT-29 [5]: 87 ± 14%
mPD-L1 relative detection, MCF-7 [5]: 89 ± 5%
mVEGFR-2 relative detection, A-549 [6]: >100%
mVEGFR-2 relative detection, HT-29 [6]: 81 ± 1%
mVEGFR-2 relative detection, MCF-7 [6]: >100%
tPD-L1 relative detection, A-549 ([7]; A-549): 56 ± 19%
Inhibition of total PD-L1, A-549 ([7]; A-549, compared to non-treated cells): ~50%
tPD-L1 relative detection, HT-29 [7]: >100%
tPD-L1 relative detection, MCF-7 [7]: >100%
c-Myc relative detection, A-549 [8]: >100%
c-Myc relative detection, HT-29 [8]: >100%
c-Myc relative detection, MCF-7 [8]: 63 ± 2%
melting point: 130 to 132 °C

COc1ccccc1Cn1cc(-c2ccc(N)cc2)nn1 [Compound 18, 4-(1-(2-methoxybenzyl)-1H-1,2,3-triazol-4-yl)aniline]
IC50 [1]: > 100 µM
IC50 [2]: > 100 µM
IC50 [3]: > 100 µM
IC50 [4]: > 100 µM
mPD-L1 relative detection, A-549 [5]: 89 ± 9%
mPD-L1 relative detection, HT-29 [5]: 61 ± 22%
mPD-L1 relative detection, MCF-7 [5]: 81 ± 2%
mVEGFR-2 relative detection, A-549 [6]: >100%
mVEGFR-2 relative detection, HT-29 [6]: 93 ± 1%
mVEGFR-2 relative detection, MCF-7 [6]: >100%
tPD-L1 relative detection, A-549 ([7]; A-549): 91 ± 4%
tPD-L1 relative detection, HT-29 [7]: 70 ± 11%
tPD-L1 relative detection, MCF-7 [7]: >100%
c-Myc relative detection, A-549 [8]: >100%
c-Myc relative detection, HT-29 [8]: >100%
c-Myc relative detection, MCF-7 [8]: 53 ± 3%
melting point: 166 to 167 °C

Nc1ccc(-c2cn(Cc3cccc(Br)c3)nn2)cc1 [Compound 25, 4-(1-(3-bromobenzyl)-1H-1,2,3-triazol-4-yl)aniline]
IC50 [1]: 8.5 µM
IC50 [3]: 8 ± 4 µM
IC50 [4]: 4 ± 3 µM
mPD-L1 relative detection, A-549 [5]: >100%
mPD-L1 relative detection, HT-29 [5]: 87 ± 17%
mPD-L1 relative detection, MCF-7 [5]: 87 ± 17%
mVEGFR-2 relative detection, A-549 [6]: >100%
mVEGFR-2 relative detection, HT-29 [6]: >100%
mVEGFR-2 relative detection, MCF-7 [6]: >100%
tPD-L1 relative detection, A-549 ([7]; A-549): 76 ± 1%
tPD-L1 relative detection, HT-29 [7]: 48 ± 7%
tPD-L1 relative detection, MCF-7 [7]: >100%
c-Myc relative detection, A-549 [8]: >100%
c-Myc relative detection, HT-29 [8]: >100%
c-Myc relative detection, MCF-7 [8]: 56 ± 10%
melting point: 134 to 135 °C

CNC(=O)c1cc(Oc2ccc(NC(=O)Nc3ccc(Cl)c(C(F)(F)F)c3)cc2)ccn1 [Sorafenib, sorafenib, reference compound]
IC50 [1]: 17 ± 4 µM
IC50 [2]: 27 ± 2 µM
IC50 [3]: 14 ± 4 µM
IC50 [4]: 5 µM

Reference: publication PMC9266368, “Synthesis and Biological Evaluation of Small Molecules as Potential Anticancer Multitarget Agents” (International Journal of Molecular Sciences, 2022)
